Experimental findings from patent US10174044B2, “Fused pyridines as kinase inhibitors” (BRISTOL-MYERS SQUIBB COMPANY, priority 2015, dated 2019) are described below.

This assay deals with GST-Xa-hAAK1 (Homo sapiens (Human), UniProt Q2M2I8). As to the kind of experiment: AAK1 Kinase Assay. The class given is biochemical. The following applies: bacterially expressed GST-Xa-hAAK1 3.5 nM; ATP 22 μM; fluoresceinated peptide substrate 1.5 μM; 3 hours at room temperature. Here is the method: The assays were performed in U-bottom 384-well plates. […] The reactions were initiated by the combination of bacterially expressed, GST-Xa-hAAK1 with substrates and test compounds. The reactions were incubated at room temperature for 3 hours and terminated by adding 60 μl of 35 mM EDTA buffer to each sample. The reactions were analyzed on the Caliper LabChip 3000 (Caliper, Hopkinton, Mass.) by electrophoretic separation of the fluorescent substrate and phosphorylated product. […] Compounds were dissolved at 10 mM in dimethylsulfoxide (DMSO) and evaluated at eleven concentrations. IC50 values were derived by non-linear regression analysis.
GST-Xa-hAAK1, sequence (Q2M2I8 whole entry): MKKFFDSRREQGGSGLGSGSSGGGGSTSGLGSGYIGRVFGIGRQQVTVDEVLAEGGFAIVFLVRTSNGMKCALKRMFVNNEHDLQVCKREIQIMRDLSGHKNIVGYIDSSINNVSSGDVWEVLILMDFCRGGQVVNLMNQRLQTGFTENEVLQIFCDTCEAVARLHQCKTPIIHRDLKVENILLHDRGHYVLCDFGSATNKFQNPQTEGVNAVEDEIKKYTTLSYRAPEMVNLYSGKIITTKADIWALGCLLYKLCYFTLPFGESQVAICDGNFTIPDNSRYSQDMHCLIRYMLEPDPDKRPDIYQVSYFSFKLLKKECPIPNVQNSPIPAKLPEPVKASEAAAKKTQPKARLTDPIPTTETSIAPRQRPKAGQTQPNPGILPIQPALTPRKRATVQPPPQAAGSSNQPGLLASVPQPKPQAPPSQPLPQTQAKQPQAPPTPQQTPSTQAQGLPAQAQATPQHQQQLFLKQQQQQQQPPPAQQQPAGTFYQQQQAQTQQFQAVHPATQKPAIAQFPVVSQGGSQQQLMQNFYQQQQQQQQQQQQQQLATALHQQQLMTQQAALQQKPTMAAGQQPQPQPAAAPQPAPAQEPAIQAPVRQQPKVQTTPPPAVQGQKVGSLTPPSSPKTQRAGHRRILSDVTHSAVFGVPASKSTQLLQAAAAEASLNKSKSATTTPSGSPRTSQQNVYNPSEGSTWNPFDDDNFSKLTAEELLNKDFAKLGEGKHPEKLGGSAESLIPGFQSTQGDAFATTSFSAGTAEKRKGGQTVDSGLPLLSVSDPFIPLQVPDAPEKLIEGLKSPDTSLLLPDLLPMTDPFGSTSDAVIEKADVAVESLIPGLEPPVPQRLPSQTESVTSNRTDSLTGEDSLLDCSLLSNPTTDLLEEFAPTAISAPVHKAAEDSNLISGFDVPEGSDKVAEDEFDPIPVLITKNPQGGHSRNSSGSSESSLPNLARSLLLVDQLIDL
Consider `CC(C)C[C@H](N)COc1ccc2c(c1)c(=O)[nH]c1cnccc12` [Example 1, (S)-8-((2-amino-4-methylpentyl)oxy)benzo[c][1,7]naphthyridin-6(5H)-one], for which the IC50 was 9.5 nM.

Consider `CC(C)C[C@H](N)COc1ccc2c(c1)c(=O)n(C)c1cnccc21` [Example 2, (S)-8-((2-amino-4-methylpentyl)oxy)-5-methylbenzo[c][1,7]naphthyridin-6(5H)-one], for which the IC50 turned out to be 37 nM. On to `Cc1cc2c(cc1OC[C@@H](N)CC(C)C)c(=O)n(C)c1cnccc21` [Example 3, (S)-8-((2-amino-4-methylpentyl)oxy)-5,9-dimethylbenzo[c][1,7]naphthyridin-6(5H)-one], for which the IC50 is 3.2 nM. As for `Cc1cc2c(cc1OC[C@@H](N)CC(C)C)c(=O)n(C)c1c(C)nccc21` [Example 4, (S)-8-((2-amino-4-methylpentyl)oxy)-4,5,9-trimethylbenzo[c][1,7]naphthyridin-6(5H)-one], the IC50 was found to be 14 nM. Turning to `Cc1nccc2c3cc(Cl)c(OC[C@@H](N)CC(C)C)cc3c(=O)n(C)c12` [Example 5, (S)-8-((2-amino-4-methylpentyl)oxy)-9-chloro-4,5-dimethylbenzo[c][1,7]naphthyridin-6(5H)-one], the IC50 worked out at 87 nM. For `Cc1cc2c(cc1OCC(N)CCC(F)(F)F)c(=O)n(C)c1cnccc21` (stereo not drawn) [Example 6, 8-((2-amino-5,5,5-trifluoropentyl)oxy)-5,9-dimethylbenzo[c][1,7]naphthyridin-6(5H)-one], the IC50 amounted to 3.7 nM. For the compound `CC(C)CC(C)(N)COc1ccc2c(c1)c(=O)n(C)c1cnccc21` (stereo not drawn) [Example 7, 8-((2-amino-2,4-dimethylpentyl)oxy)-5-methylbenzo[c][1,7]naphthyridin-6(5H)-one], the IC50 came to 31 nM. Take `CC(C)CC(C)(N)COc1ccc2c(c1)c(=O)[nH]c1cnccc12` (stereo not drawn) [Example 8, 8-((2-amino-2,4-dimethylpentyl)oxy)benzo[c][1,7]naphthyridin-6(5H)-one]: the IC50 amounted to 2.6 nM. For `Cc1nccc2c3ccc(OCC(C)(N)CC(C)C)cc3c(=O)n(C)c12` (stereo not drawn) [Example 9, 8-((2-amino-2,4-dimethylpentyl)oxy)-4,5-dimethylbenzo[c][1,7]naphthyridin-6(5H)-one], the IC50 was determined as 49 nM. The result for `Cc1nccc2c3ccc(OC[C@@](C)(N)CC(C)C)cc3c(=O)n(C)c12` [Example 10, (S)-8-((2-amino-2,4-dimethylpentyl)oxy)-4,5-dimethylbenzo[c][1,7]naphthyridin-6(5H)-one] reads 35 nM.

Regarding `Cc1nccc2c3ccc(OC[C@](C)(N)CC(C)C)cc3c(=O)n(C)c12` [Example 11, (R)-8-((2-amino-2,4-dimethylpentyl)oxy)-4,5-dimethylbenzo[c][1,7]naphthyridin-6(5H)-one], the 50% inhibitory concentration (IC50) is 92 nM. The result for `[2H]C([2H])(Oc1cc2c(=O)n(CC)c3c(C)nccc3c2cc1Cl)C(C)(N)CC(C)C` (stereo not drawn) [Example 12, 8-((2-amino-1,1-dideutero-2,4-dimethylpentyl)oxy)-9-chloro-5-ethyl-4-methylbenzo[c][1,7]naphthyridin-6(5H)-one] reads 30 nM; that for `[2H]C([2H])(Oc1ccc2c(c1)c(=O)n(C)c1c(C)nccc21)C(C)(N)CC(C)C` (stereo not drawn) [Example 13, 8-((2-amino-1,1-dideutero-2,4-dimethylpentyl)oxy)-4,5-dimethylbenzo[c][1,7]naphthyridin-6(5H)-one], 117 nM; that for `Cc1cc2c3ccc(OC[C@@](C)(N)CC(C)C)cc3c(=O)n(C)c2cn1` [Example 14, (S)-8-((2-amino-2,4-dimethylpentyl)oxy)-2,5-dimethylbenzo[c][1,7]naphthyridin-6(5H)-one], 8.1 nM. As to `Cc1nccc2c3ccc(OC[C@@](C)(N)CC(C)C)c(Cl)c3c(=O)n(C)c12` [Example 15, (S)-8-((2-amino-2,4-dimethylpentyl)oxy)-7-chloro-4,5-dimethylbenzo[c][1,7]naphthyridin-6(5H)-one], the half-maximal inhibitory concentration (IC50) is 59 nM. Consider `CCn1c(=O)c2cc(OC[C@@](C)(N)CC(C)C)c(Cl)cc2c2ccnc(C)c21` [Example 16, (S)-8-((2-amino-2,4-dimethylpentyl)oxy)-9-chloro-5-ethyl-4-methylbenzo[c][1,7]naphthyridin-6(5H)-one], for which the IC50 was 24 nM. The result for `Cc1cc2c3ccc(OC[C@@](C)(N)CC(C)C)c(Cl)c3c(=O)n(C)c2cn1` [Example 18, (S)-8-((2-amino-2,4-dimethylpentyl)oxy)-7-chloro-2,5-dimethylbenzo[c][1,7]naphthyridin-6(5H)-one] reads 3 nM. As to `CCn1c(=O)c2cc(OC[C@@](C)(N)CC(C)C)ccc2c2ccnc(C)c21` [Example 19, (S)-8-((2-amino-2,4-dimethylpentyl)oxy)-5-ethyl-4-methylbenzo[c][1,7]naphthyridin-6(5H)-one], the IC50 was 1340 nM. `Cc1cc2c3ccc(OC[C@@](C)(N)CC(C)C)c(C)c3c(=O)n(C)c2cn1` [Example 20, (S)-8-((2-amino-2,4-dimethylpentyl)oxy)-2,5,7-trimethylbenzo[c][1,7]naphthyridin-6(5H)-one]: the IC50 amounted to 4.1 nM. The result for `Cc1nccc2c3ccc(OC[C@@](C)(N)CC(C)C)cc3c(=O)n(CCO)c12` [Example 21, (S)-8-((2-amino-2,4-dimethylpentyl)oxy)-5-(2-hydroxyethyl)-4-methylbenzo[c][1,7]naphthyridin-6(5H)-one] reads 1130 nM; that for `[2H]C([2H])([2H])n1c(=O)c2cc(OC[C@@](C)(N)CC(C)C)c(Cl)cc2c2ccnc(C)c21` [Example 22, (S)-8-((2-amino-2,4-dimethylpentyl)oxy)-9-chloro-4-methyl-5-(trideuteromethyl)benzo[c][1,7]naphthyridin-6(5H)-one], 3.2 nM. Take `[2H]C([2H])([2H])n1c(=O)c2cc(OC[C@@](C)(N)CC(C)C)ccc2c2ccnc(C)c21` [Example 23, (S)-8-((2-amino-2,4-dimethylpentyl)oxy)-4-methyl-5-(trideuteromethyl)benzo[c][1,7]naphthyridin-6(5H)-one]: the IC50 is 46 nM. As to `Cc1nccc2c3cc(C#N)c(OC[C@@](C)(N)CC(C)C)cc3c(=O)n(C3CC3)c12` [Example 24, (S)-8-((2-amino-2,4-dimethylpentyl)oxy)-5-cyclopropyl-4-methyl-6-oxo-5,6-dihydrobenzo[c][1,7]naphthyridine-9-carbonitrile], the IC50 is 69 nM. Take `Cc1nccc2c3cc(Cl)c(OC[C@@](C)(N)CC(C)C)cc3c(=O)n(C(C)C)c12` [Example 25, (S)-8-((2-amino-2,4-dimethylpentyl)oxy)-9-chloro-5-isopropyl-4-methylbenzo[c][1,7]naphthyridin-6(5H)-one]: the IC50 turned out to be 227 nM.

On to `Cc1cc2c(cc1OC[C@@](C)(N)CC(C)C)c(=O)n(C)c1c(C)nccc21` [Example 26, (S)-8-((2-amino-2,4-dimethylpentyl)oxy)-4,5,9-trimethylbenzo[c][1,7]naphthyridin-6(5H)-one], for which the IC50 was determined as 5.4 nM. With `Cc1nccc2c3cc(Cl)c(OC[C@@](C)(N)CC(C)C)cc3c(=O)n(C)c12` [Example 27, (S)-8-((2-amino-2,4-dimethylpentyl)oxy)-9-chloro-4,5-dimethylbenzo[c][1,7]naphthyridin-6(5H)-one], the IC50 was determined as 1.7 nM. As for `Cc1nccc2c1[nH]c(=O)c1cc(OC[C@@](C)(N)CC(C)C)c(Cl)cc12` [Example 28, (S)-8-((2-amino-2,4-dimethylpentyl)oxy)-9-chloro-4-methylbenzo[c][1,7]naphthyridin-6(5H)-one], the IC50 was 611 nM. With `CC(C)C[C@H](N)COc1ccc2c(c1)COc1cnccc1-2` [Example 29, (S)-1-((6H-isochromeno[3,4-c]pyridin-8-yl)oxy)-4-methylpentan-2-amine], the IC50 worked out at 13 nM. For the compound `CC(C)C[C@H](N)COc1ccc2c(c1)C(C)Oc1cnccc1-2` (stereo partly drawn) [Example 30, (2S)-4-methyl-1-((6-methyl-6H-isochromeno[3,4-c]pyridin-8-yl)oxy)pentan-2-amine], the IC50 turned out to be 17 nM. In the case of `CC(C)C[C@H](N)COc1ccc2c(c1)C(C)(C)Oc1cnccc1-2` [Example 31, (S)-1-((6,6-dimethyl-6H-isochromeno[3,4-c]pyridin-8-yl)oxy)-4-methylpentan-2-amine], the IC50 turned out to be 235 nM. For `Cc1cc2c(cc1OC[C@@H](N)CC(C)C)COc1cnccc1-2` [Example 32, (S)-4-methyl-1-((9-methyl-6H-isochromeno[3,4-c]pyridin-8-yl)oxy)pentan-2-amine], the IC50 came to 3.2 nM. As for `CC(=O)Nc1cc2c(cn1)OCc1cc(OC[C@@H](N)CC(C)C)ccc1-2` [Example 33, (S)—N-(8-((2-amino-4-methylpentyl)oxy)-6H-isochromeno[3,4-c]pyridin-2-yl)acetamide], the IC50 amounted to 2.1 nM. As to `COC(=O)Nc1cc2c(cn1)OCc1cc(OC[C@@H](N)CC(C)C)ccc1-2` [Example 34, (S)-methyl (8-((2-amino-4-methylpentyl)oxy)-6H-isochromeno[3,4-c]pyridin-2-yl)carbamate], the half-inhibitory concentration (IC50) stood at 3.8 nM. The result for `CC(C)C[C@H](N)COc1ccc2c(c1)COc1cnc(N)cc1-2` [Example 35, (S)-8-((2-amino-4-methylpentyl)oxy)-6H-isochromeno[3,4-c]pyridin-2-amine] reads 11 nM; that for `CC(=O)Nc1cc2c(cn1)OCc1cc(OCC(C)(N)CC(C)C)ccc1-2` (stereo not drawn) [Example 36, N-(8-((2-amino-2,4-dimethylpentyl)oxy)-6H-isochromeno[3,4-c]pyridin-2-yl)acetamide], 2.6 nM. In the case of `CC(=O)Nc1cc2c(cn1)OCc1cc(OC[C@@](C)(N)CC(C)C)ccc1-2` [Example 37, (S)—N-(8-((2-amino-2,4-dimethylpentyl)oxy)-6H-isochromeno[3,4-c]pyridin-2-yl)acetamide], the IC50 amounted to 2.4 nM.

Usually IC50 stands for the midpoint of a concentration-inhibition curve.
